In US7148254B2, “2-Phenylbenzofuran derivatives, a process for preparing them, and their use” (Sanofi-Aventis Deutschland GmbH, priority 2003, dated 2006):

Columns and labels:
[1] = molecular target: N-acetylglucosamine-1-phosphate uridyltransferase (GlmU) (Escherichia coli, UniProt P0ACC7); assay: GlmU inhibition, biochemical test (384-plate format, DTNB, absorption at 405 nm); parameters: species or system bacterial; conditions: 60 minutes of incubation at 30° C.; read-out: inhibition constant, IC50, inhibitory effect on the enzyme GlmU
N-acetylglucosamine-1-phosphate uridyltransferase (GlmU), sequence (P0ACC7 whole entry): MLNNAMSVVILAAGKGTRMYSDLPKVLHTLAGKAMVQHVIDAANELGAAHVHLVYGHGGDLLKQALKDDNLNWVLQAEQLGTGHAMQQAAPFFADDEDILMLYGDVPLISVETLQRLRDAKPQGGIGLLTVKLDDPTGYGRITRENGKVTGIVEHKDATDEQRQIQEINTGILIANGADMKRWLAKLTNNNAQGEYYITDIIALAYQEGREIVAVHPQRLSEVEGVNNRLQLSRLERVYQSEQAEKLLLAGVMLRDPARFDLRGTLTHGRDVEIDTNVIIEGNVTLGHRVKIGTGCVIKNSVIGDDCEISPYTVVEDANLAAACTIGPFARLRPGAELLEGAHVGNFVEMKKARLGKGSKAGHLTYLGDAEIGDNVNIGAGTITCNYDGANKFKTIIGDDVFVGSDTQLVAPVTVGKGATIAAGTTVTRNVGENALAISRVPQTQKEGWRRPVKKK
Protocol: The inhibition of the GlmU can be determined in a biochemical test using the following method:
The assay was carried out in a 384-plate format. The reaction volume was 40 μl per test. The reaction mixture contained 10 μl of test substance and 15 μl of substrate solution consisting of acetylCoA and D-glucosamine-1-phosphate. The enzyme reaction was started by adding 15 μl of GlmU enzyme solution. After 60 minutes of incubation at 30° C., the reaction was stopped by adding 10 μl of developer reagent (DTNB dissolved in guanidine). The plates were then centrifuged (1 min, 1000 rpm) and stored for a further 45 minutes at room temperature before the absorption was read at 405 nm in a photometer. In order to be able to calculate the inhibitory activity of the test compounds, positive controls (signal with GlmU) and negative controls (signal without GlmU) were included on each plate. In order to exclude falsely positive samples, which could be caused by nonspecific substance effects (e.g. color), blank plates, which contained the substances but no GlmU, were included in parallel with the test plates. After correction for the blanks, the inhibitory activities of the substances were calculated in accordance with the following formula: Inhibition(%)=100×[1−(OD405 nm substance/OD405 nm positive control)]

[2] = Physicochemical properties: solubility; conditions: organic solvents
[3] = Physicochemical properties: stability

## Cc1c(O)c(O)c(O)c(C=O)c1-c1cc2c(C=O)c(C)c(O)c(O)c2o1 [(II)]
[1]
  IC50: 1000 nM
[2]
  solubility: soluble in medium-polar and polar organic solvents
[3]; neutral and mildly acid medium
  stability: Stable in neutral and mildly acid medium
[3]; strongly acidic and alkaline solutions, under the influence of oxygen
  stability: unstable in strongly acidic and alkaline solutions and under the influence of oxygen
